Legend:
HEK293 cells; N2a cells = test: Cell rescue assay: protection against thapsigargin (TG)-induced cell-death (ALAMARBLUE); format: cell-based, Human; Mouse; conditions: Homo sapiens; compound 20 μM, 2 hrs before thapsigargin (15 μM HEK293, 1 μM N2a), 24 hrs; viability as % RFU compared to control; read-out: Cell Survival %
Experimental: Protection against Thapsigargin (TG)-induced Cell-death. Human embryonic kidney (HEK293) cells were grown in Dulbecco's Modified Eagle's Medium (DMEM) with 10% FBS and 1% antibiotic antimycotic solution (ABAM). Mouse neuroblastoma (N2a) cells were grown in 1:1 DMEM:OPTI-MEM® with 5% FBS and 1% ABAM. All cells were grown in 10% CO2 in a humidified environment of the incubator. Cells grown in 96-well plates were exposed to a test compound (20 μM) for 2 hrs before addition of thapsigargin (15 μM for HEK293 cells and 1 μM for N2a cells) to induce ER stress. After incubation in cell-culture incubator for 24 hrs, ALAMARBLUE® regent (10% v/v) was added to the wells. Fluorescence reading was taken 2 hrs after the addition of the ALAMARBLUE® regent. Cell-viability was calculated as a percentage of relative fluorescence unit (RFU) compared to control. […] The biological results are summarized in Table 2, where each compound was tested at 20 μM and where A represents a viability greater than 50%, B represents a viability greater than 10% and less than 50%, C represents a value at or below 10%.

Ob/ob mice = test: Effect of a SERCA agonist on the level of blood glucose; format: in vivo; conditions: Mus musculus, ip, 96 h, 50 mg/kg i.p. once a day for 5 days, fasting glucose at baseline and 4 days after administration, read-out: Glucose level reduction
Experimental: Ob/ob mice (10 weeks old, n=7) were intraperitoneally (i.p.) injected with 100 μL of a solution containing 0 (vehicle) or 50 mg/kg of a test compound once a day for a total of 5 days. Fasting glucose was measured at baseline and 4 days after the administration of the test compound. Glucose levels were measured in blood samples drawn from the tail vein using a handheld glucose sensor. Compound effects on blood glucose are shown in Table 5 where A represents a 10-20% reduction in blood glucose, B represents a 21-30% reduction in blood glucose, and C represents a greater than 30% reduction in blood glucose levels.

CSM14.1 neuronal cells = test: Cell survival assay (thapsigargin-treated cells, CELLTITER-GLO luminescence); format: cell-based; conditions: compound 2 hrs before about 15 μM thapsigargin, overnight
Experimental: CSM14.1 neuronal cells were maintained in Complete Medium at 32° C.; wherein the Complete Medium contained Dulbecco's modified eagle medium (DMEM) with 10% fetal bovine serum (FSB), 1% L-glutamine, 100 IU/mL penicillin, and 100 μg/mL streptomycin. The cells were recovered from cultures by trypsinization and then seeded in 384 well plates (Greiner #781098) at a concentration of 1,000 cells/well in 20 μL of DMEM Assay Medium, wherein the DMEM Assay Medium contained 2% FBS, 100 IU/mL penicillin, and 100 μg/mL streptomycin. Seeding was performed using a MultiDrop Combi reagent broadcaster. The plates were incubated overnight at 32° C. A test compound was prepared by 2-fold serial dilution in 100% DMSO using a BIOMEK® 2000 liquid handler (Beckman Coulter). A dose-response curve containing 10 concentrations of the test compound was obtained. Using a BIOMEK® FX liquid handler (Beckman Coulter), 2.5 μL of the test compound was transferred from the 100% DMSO serial dilution plate to an intermediate plate containing 47.5 μL of DMEM Assay Medium containing 2% FBS, 100 IU/mL penicillin, and 100 μg/mL streptomycin and mixed. To reduce or eliminate the interference from the compound's precipitation, 6 μL of the diluted compound was immediately transferred to the assay plate to achieve a high compound concentration of 100 μM in 99% DMEM Assay Medium and 1% DMSO. After the assay plates were incubated for 2 hrs, 4 μL of 112.5 μM thapsigargin (TG) (DMSO stock diluted into Assay TC Medium) was dispensed into each testing well with a MultiDrop Combi reagent broadcaster for a final concentration of about 15 μM TG. The tissue culture media (4 μL) containing vehicle only was transferred manually to each control cell using a 16 channel electronic pipette. After the plates were incubated overnight (about 16 to 24 hrs), CELLTITER-GLO® (Promega) (16 μL) was added to all wells and luminescence was measured. High luminescence indicates cell survival. The biological results are summarized in Table 1 where A represents a cell viability EC50 less than 1 μM and B represents a value greater than 1 μM and less than 10 μM and C represents a value equal to or greater than 10 μM and less than 20 μM.

SH-SY5Y cells = test: Cell rescue assay: protection against ß-amyloid-induced cell toxicity; format: cell-based; conditions: Homo sapiens, 96 h, 7.5 uM compound, AB 1-42 at 10 uM, 4 days, OD at 490 nm, read-out: Cell Survival % (cell rescue)
Experimental: Protection against ß-amyloid-induced cell toxicity. Chonpathompikunlert et al. Eu. J. Pharmacol. 2011, 650, 544-549. Human SH-SY5Y cells are suspended in media containing 2% FBS and 2× Gentamicin. Transfer 100 ul/well culture to 96-well plate (20,000 cells/well; passage #5) and incubate overnight. Prepare compound samples at 30 uM. Add 50 ul of the samples to the cells [[…]] and incubate 3 hours. Make stock of 40 uM AB 1-42 peptide in assay media. Transfer 50 ul/well to cells/compounds in assay plate. The final assay volume is 200 ul/well, containing 2% FBS, 2× Gentamicin, 7.5 uM compound and AB 1-42 at 10 uM. Incubate for 4 days then add 20 ul of Promega Substrate Cell Titer 96 Aqueous One Solution Reagent to each well. Incubate 37 OC and read OD at 490 nm. The results are summarized in Table 3, where A represents a value equal to or greater than 50% cell rescue, B represents a value greater than 10% and less than 50% cell rescue, and C represents a value greater than 1% and less than or equal to 10% cell rescue.

SERCA = molecular target: T1, SERCA (Homo sapiens, UniProt P16615); test: Ca-ATPase assay (NADH-linked, enzyme-coupled ATPase assay); format: biochemical; conditions: microsomal preparations from HEK 293 cells, Vmax from Hill fit of ATPase calcium-dependence, relative to controls
T1 construct: microsomal preparations from HEK 293 cells; endogenous in cells; host or cells: HEK 293 cells (microsomal preparation)
Experimental: A Ca-ATPase assay was performed using microsomal preparations from HEK 293 cells at a series of calcium concentrations corresponding to the physiological range, relative to controls. The ATP hydrolysis rate was measured over a range of calcium concentrations in the presence of test compounds using an NADH-linked, enzyme-coupled ATPase assay adapted for 96-well microplates, with Vmax determined by fitting the ATPase calcium-dependence to the Hill function. Each well contained 2 μg or 7 μg of SR vesicles (optimized for skeletal or cardiac SR, respectively), 50 mM MOPS (pH 7.0), 100 mM KCl, 5 mM MgCl2, 1 mM EGTA, 0.2 mM NADH, 1 mM phosphoenol pyruvate, 5 IU pyruvate kinase, 5 IU lactate dehydrogenase, and 3.5 μg/mL A23187 (a calcium ionophore). CaCl2 was added to set free [Ca^2+] to the specific values. The assay was started upon addition of ATP at a final concentration of 5 mM, and read in a SpectraMax Plus microplate spectrophotometer. The results are summarized in Table 4, where A represents an increase in SERCA Vmax greater than or equal to 50% and B represents a value greater than 10% and less than 50%.

T1 sequence (P16615 whole entry): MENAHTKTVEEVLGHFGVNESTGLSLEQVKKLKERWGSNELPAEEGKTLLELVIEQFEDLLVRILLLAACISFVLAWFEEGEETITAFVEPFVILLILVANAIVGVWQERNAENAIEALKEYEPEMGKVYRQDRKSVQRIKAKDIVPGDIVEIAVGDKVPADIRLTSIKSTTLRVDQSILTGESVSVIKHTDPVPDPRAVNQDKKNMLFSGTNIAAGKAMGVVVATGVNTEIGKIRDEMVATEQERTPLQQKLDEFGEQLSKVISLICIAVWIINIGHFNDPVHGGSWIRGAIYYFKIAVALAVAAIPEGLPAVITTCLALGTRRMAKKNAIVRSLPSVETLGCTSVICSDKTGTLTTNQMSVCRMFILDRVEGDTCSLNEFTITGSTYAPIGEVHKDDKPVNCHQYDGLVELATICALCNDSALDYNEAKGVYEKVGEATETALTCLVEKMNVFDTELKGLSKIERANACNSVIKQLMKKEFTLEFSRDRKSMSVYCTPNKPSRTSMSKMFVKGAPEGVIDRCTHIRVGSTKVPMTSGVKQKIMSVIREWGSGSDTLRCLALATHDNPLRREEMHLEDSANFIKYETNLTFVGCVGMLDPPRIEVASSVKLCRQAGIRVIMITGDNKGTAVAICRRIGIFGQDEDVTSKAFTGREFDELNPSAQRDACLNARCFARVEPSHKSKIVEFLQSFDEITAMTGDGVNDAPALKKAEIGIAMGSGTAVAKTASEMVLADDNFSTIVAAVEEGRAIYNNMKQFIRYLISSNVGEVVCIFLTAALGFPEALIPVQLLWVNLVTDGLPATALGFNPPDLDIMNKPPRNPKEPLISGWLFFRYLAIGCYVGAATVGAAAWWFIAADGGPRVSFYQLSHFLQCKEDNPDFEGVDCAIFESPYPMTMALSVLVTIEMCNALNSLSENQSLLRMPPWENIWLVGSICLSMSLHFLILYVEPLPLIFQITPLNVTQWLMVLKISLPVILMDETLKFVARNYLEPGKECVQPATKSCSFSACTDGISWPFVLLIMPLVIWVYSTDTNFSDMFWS

Row | Compound | viability at 20 µM (HEK293 cells; N2a cells) [%] | inhibition in vivo at 50 mg/kg (Ob/ob mice) [%] | EC50 (CSM14.1 neuronal cells) [µM] | viability at 7.5 µM (SH-SY5Y cells) [%] | SERCA Vmax Increase (SERCA)
1 | Cc1ccc2cccc(C(=O)Nc3cc(Br)cs3)c2n1 [B1, N-(4-Bromothiophen-2-yl)-2-methylquinoline-8-carboxamide] | > 50 | > 30 | 1 to 10 | 10 to 50 | A (an increase in SERCA Vmax greater than or equal to 50%)
2 | Cc1ccc2cccc(C(=O)Nc3ccc(Br)s3)c2n1 [B2, N-(5-Bromothiophen-2-yl)-2-methylquinoline-8-carboxamide] | > 50 | 21 to 30 | 1 to 10 | 10 to 50 | A (an increase in SERCA Vmax greater than or equal to 50%)
3 | Cc1ccc2cccc(C(=O)Nc3cccc(F)c3)c2n1 [A3, N-(3-Fluorophenyl)-2-methylquinoline-8-carboxamide] | 10 to 50 | 10 to 20 | 10 to 20 | 10 to 50 | B (a value greater than 10% and less than 50%)
4 | Cc1ccc2cccc(C(=O)Nc3ccc(Cl)cc3)c2n1 [A2, N-(4-Chlorophenyl)-2-methylquinoline-8-carboxamide] | > 50 | > 30 | 1 to 10 | ≥ 50 | B (a value greater than 10% and less than 50%)
5 | Cc1ccc2cccc(C(=O)Nc3ccc(OC(C)C)cc3)c2n1 [A1, N-(4-Isopropoxyphenyl)-2-methylquinoline-8-carboxamide] | > 50 | > 30 | 1 to 10 | 10 to 50 | A (an increase in SERCA Vmax greater than or equal to 50%)
6 | Cc1ccc2cccc(C(=O)Nc3cccs3)c2n1 [B4, 2-Methyl-N-(thiophen-2-yl)quinoline-8-carboxamide] | > 50 | > 30 | 1 to 10 | ≥ 50 | B (a value greater than 10% and less than 50%)
7 | Cc1ccc2cccc(C(=O)Nc3ccc(C4CC4)s3)c2n1 [B5, N-(5-Cyclopropylthiophen-2-yl)-2-methylquinoline-8-carboxamide] | ≤ 10 | 10 to 20 | 1 to 10 | 1 to 10 | A (an increase in SERCA Vmax greater than or equal to 50%)
8 | Cc1ccc(NC(=O)c2cccc3ccc(C)nc23)cc1 [A5, N-(4-Methylphenyl)-2-methylquinoline-8-carboxamide] | > 50 | 21 to 30 | 1 to 10 | ≥ 50 | B (a value greater than 10% and less than 50%)
9 | Cc1ccc2cccc(C(=O)Nc3ccc(C)s3)c2n1 [B3, 2-Methyl-N-(5-methylthiophen-2-yl)quinoline-8-carboxamide] | ≤ 10 | 10 to 20 | 1 to 10 | 1 to 10 | B (a value greater than 10% and less than 50%)
10 | Cc1ccc2cccc(C(=O)Nc3ccc(N(C)C)cc3)c2n1 [A4, N-(4-(Dimethylamino)phenyl)-2-methylquinoline-8-carboxamide] | 10 to 50 | 21 to 30 | < 1 | 10 to 50 | A (an increase in SERCA Vmax greater than or equal to 50%)
